According to patent US12090189B2, “Polypeptide inhibitor of de novo lipogenesis in cancer cells” (University of Florida Research Foundation, Inc., priority 2018, dated 2024):
Ends that are not written are not given here.

What was measured:
[1] = system: protein levels of ACC1, FAS and ACSS2; experiment: Immunoblotting of MDA-MB-231-derived cells treated with mTOR inhibitor; assay type: cell-based, human; conditions: serum-starved 24 h, 0.1 μM for 5 h; for protein levels of ACC1, FAS and ACSS2: control or S671A-expressing cells
Description: FIGS. 6A to 6H show mutation of DAXX phosphorylation sites disrupts DAXX-SREBP2 interaction, impairs lipogenesis and tumor growth. […] The GFP-wt DAXX was transfected alone in the absence of FLAG-SREBP2 as a control (lane 7). The lysates of transfected cells were subjected to IP with an anti-FLAG antibody. Both DAXX and FLAG-SREBP2 were detected in immunoprecipitates and input lysates. […] The precipitated DNAs were subjected to qPCR with primers specific to promoter regions of the indicated genes. qPCRs for the 3′ UTR of the FASN and ACACA genes serve as negative control. […] ATRX qRT-PCR serves as a control for genes not regulated by SREBPs. […] Cells were serum-starved for 24 h. DMSO or a mTOR inhibitor (0.1 μM final concentration) was added for 5 h before cell lysis. […] RNAs were isolated from cells cultured in serum-free DMEM for 24 h as in FIG. 6D.
For immunoblotting analyses of cell lysates of monolayer cultures, medium was removed from culture plates and 1× Passive Lysis buffer (Promega) was added. The plates were frozen at −80° C. overnight and then thawed at room temperature. The lysates were transferred to a centrifuge tube. To prepare tumor lysates, xenograft tumor tissues were fragmented in the presence of liquid nitrogen, approximately 50 mg of tumor fragment was homogenized in 1 mL of 1× RIPA lysis buffer on ice using a micro-homogenizer. After brief sonication at a low power output for 5 sec on ice, the lysates were cleared by centrifugation at 13,000 rpm for 15 min at 4° C. Protein contents were quantified using a Qubit protein assay kit. Protein extracts from cell culture or tumor lysates were subjected to SDS-PAGE and electro-blotting as above.

[2] = system: MDA-MB-231 and MDA-MB-468 cells; experiment: Cell internalization of TAMRA-SIM2 by microscopy; assay type: cell-based, human; conditions: TAMRA-SIM2 1 μM, 1 hour
Procedure: FIGS. 18A to 18I show SIM2 peptide blocks lipogenesis. […] MDA-MB-231 and MDA-MB-468 cells were exposed to TAMRA-SIM2 (1 μM) for 1 hour and visualized by microscopy. […] Fluorescence polarization assay was performed in the presence of TAMRA-SIM2 and increased concentrations of SUMO1. FIGS. 18C-18H show SIM2 blocks de novo lipogenesis in MDA-MB-231 control or DAXX OE (FIG. 18C), MDA-MB-468 (FIG. 18D), Hs578T (FIG. 18E), HCT116 (FIG. 18F), 4T1 (FIG. 18G), and CT26.CL25 (FIG. 18H). Serum-starved cells were not treated (control) or exposed to SIM2 (10 μM) and labeled with [^14C] acetate. The levels of labeled lipids were quantified. […] MDA-MB-231 control and DAXX OE cell lines were untreated (control) or treated with SIM2 (10 μM). At 24 h after treatment, RNA was isolated and subject to qRT-PCR. RNA levels were normalized against that of ACTB. The p values shown are based on t-test.

[3] = Tolerability in tumor-bearing mice (body weights); assay type: in vivo; conditions: 25 mg/kg i.p. daily weekdays
Procedure: FIGS. 7A to 7E show the DAXX SIM2 peptide disrupts DAXX-SREBP interaction and suppresses tumor growth in vivo. […] The immunoprecipitates, input and supernatants were analyzed by immunoblotting. […] Mice were dosed i.p. daily weekdays for three weeks with vehicle or SIM2 (25 mg/kg). Longitudinal tumor volumes, mouse body weights, and endpoint tumor weights and images are shown. […] Protein extracts from three representative MDA-MB-231 xenograft tumors in vehicle and SIM2-treated mice were subjected to immunoblotting. HSP60 was detected as a loading control. […] Mice were dosed as in FIG. 7B. Longitudinal tumor volumes, mouse body weights, and endpoint tumor weights and tumor images are shown. […] Shown are a plot of a principal component analysis of lipid molecules detected by LC/MS, a heatmap of top lipid species, and bar graphs of relative abundance of the indicated lipid molecules. […] The p values were calculated based on Student's t-test. *: p<0.05; **: […].
For the in vivo SIM2 treatment study, MDA-MB-231 xenograft tumors were established as above and the mouse mammary tumor cell line 4T1 syngeneic tumors were established by transplanting one million cells in 100 μl of DMEM into mammary fat pads of female BALB/c mice. […] During the treatment, tumor dimensions and mouse body weights were recorded once weekly. […]

Compound	protein levels of ACC1, FAS and ACSS2 [1]	levels of ACC1 and FAS ([1]; cells expressing the S495A mutant)	internalization into cells [2]	tolerability in vivo [3]
COc1ccc(-c2ccc3c(N4CCOC[C@@H]4C)nc(N4CCOC[C@@H]4C)nc3n2)cc1CO [AZD8055]	Neither of these inhibitors had obvious effects	–	–	–
CO[C@H]1C[C@@H]2CC[C@@H](C)[C@@](O)(O2)C(=O)C(=O)N2CCCC[C@H]2C(=O)O[C@H]([C@H](C)C[C@@H]2CC[C@@H](OC(=O)C(C)(CO)CO)[C@H](OC)C2)CC(=O)[C@H](C)/C=C(\C)[C@@H](O)[C@@H](OC)C(=O)[C@H](C)C[C@H](C)/C=C/C=C/C=C/1C [temsirolimus]	Neither of these inhibitors had obvious effects	reduced levels of both ACC1 and FAS	–	–
DPEEIIVLSDSD [SIM2, DPEEIIVLSDSD]	–	–	spontaneously and rapidly internalized into cells	highly tolerated in vivo
